Legend:
[1] = system: gut microbiota; assay: Gut microbiome composition (fecal DGGE cluster analysis) in rats on high-fat diet; format: in vivo, Sprague-Dawley rats; settings: daily oral gavage in peanut oil for 8 weeks, carotenoids 10-50 pg/d, lutein 25 μg/d, vs HF controls
Description: To evaluate the effect of carotenoids from PD01 on gut microbiome composition in vivo, male Sprague-Dawley rats of 90 days of age were daily dosed for 8 weeks with carotenoids from PD01, either as carotenoid extract or as carotenoids contained in spores or vegetative cells. The experiment consisted of administration of a high-fat (HF) diet to the animals, which mimics a standardized western diet and is associated with the development of metabolic syndrome within 8 weeks of administration. In addition to a HF control group, separate groups of animals received the HF diet in combination with one of the carotenoid formulations from PD01. To do this, the carotenoid formulations were suspended in peanut oil and given by oral gavage to the rats in addition to the HF diet. The corresponding daily dose of carotenoids was in the range of […]. A control group receiving a standard low-fat (LF) diet was included to allow assessment of the specific effect of the HF diet on the gut microbiome composition. Additionally, one extra HF group was included, receiving the plant-derived carotenoid lutein, in the same amount as the bacterial carotenoids (i.e. 25 μg/d). This allows comparison of the effect of bacterial vs. plant-derived carotenoids on the gut microbiome composition. To monitor the effects of the different formulations on the gut microbiota, DGGE profiles were prepared. […]

[2] = system: Caco-2/THP1XB co-cultures; assay: Gut barrier function: TEER in Caco-2/THP1XB co-cultures (transwell); format: cell-based; settings: 18 h after treatment of Caco-2/THP1XB co-cultures
Description: The effect on the host of the carotenoids from PD01 (derived from either vegetative cells or spores) on gut barrier function, was studied in Caco-2/THP1XB co-cultures, according to methods described in Possemiers et al. (2013, J Agric Food Chem 61). Endpoint of the measurement was a change from control in the transepithelial electrical resistance (TEER) in a transwell setup.

**Q.** Which “gut microbiome composition (DGGE cluster analysis of fecal samples)” value [1] does the source give for CC1=C[C@H](O)CC(C)(C)[C@H]1/C=C/C(C)=C/C=C/C(C)=C/C=C/C=C(C)/C=C/C=C(C)/C=C/C1=C(C)C[C@@H](O)CC1(C)C [lutein] here?
**A.** The value was “clustered together with those of the HF controls”.

**Q.** Cc1c(C)c2c(c(C)c1O)CC[C@@](C)(CCC[C@H](C)CCC[C@H](C)CCCC(C)C)O2 [α-tocopherol] was tested. Which “transepithelial electrical resistance (TEER), change from control” value [2] did it give?
**A.** Its value is “did not induce protection”.
